This note sets out measurements from patent US20230091810A1, “FIRST-IN-CLASS OF SHMT2 AND MTHFD2 INHIBITORS AS ANTITUMOR AGENTS” (Duquesne University of the Holy Spirit, priority 2017, published 2023).

Bounds are passed on as bounds.

Series [1] concerns R2 (null) (CHO). The series can be described thus: proliferation assay, R2 transporter-null CHO cells. Conditions: Cricetulus griseus, folate-/glycine-free RPMI1640 with 25 nM leucovorin, 96 h, drug 0-1000 nM, read-out: IC50s (SE) R2 (null) (CHO). The class given is cell-based, Chinese hamster. Here is the method:
Proliferation assays were performed with engineered Chinese hamster ovary (CHO) cell lines R2 (transporter-null), PC43-10 (expresses RFC only), RT16 (FRα only), and R2/PCFT4 (PCFT only) cultured in folate-/glycine-free RPMI1640 supplemented with 25 nM leucovorin. Additional results are shown for HCT116 (colon tumor cells (CTC)), IGROV1 (epithelial ovarian cancer (EOC) cells), H460 (non-small cell lung cancer (NSCLC) cells), MIAPaCa-2 (pancreatic cancer (PaC) cells), and HPAC (PaC).
Cell culture and proliferation/protection assays. […]
For proliferation assays with the CHO cell lines, the cells were treated with drugs (0-1 µM) in a 96-well plate (2000 cells/well) in glycine-free, nucleoside-free folate-free RPMI supplemented with 10% dialyzed fetal bovine serum, 1% penicillin/streptomycin, 2 mM L-glutamine, and 25 nM leucovorin (final volume 200 µL) over a 96 h incubation period at 37° C. with 5% CO2. […] To quantify viable cells, the media was removed and plates were washed once with 100 µL Dulbecco’s Phosphate-Buffered Saline (PBS), after which 100 µL PBS and 20 µL Cell Titer-blue (Promega) were added. Relative cell numbers were proportional to the fluorescence measured with a fluorescence plate reader (590 nm emission, 560 nm excitation). […]

For series [2], the system named is human MIA PaCa-2 pancreatic adenocarcinoma xenografts. The experiment in a line: in vivo efficacy trial with MIA PaCa-2 pancreatic cancer xenografts. Further details: species or system SCID mice. Here is the method: Female ICR SCID mice (10 weeks old; 19 g average body weight) were implanted bilaterally with human MIA PaCa-2 tumors. […] The mice were weighed and tumors were measured with a caliper two-to-three times weekly; mice were sacrificed when the cumulative tumor burden reached 1500 mg. Tumor weights were estimated from two-dimensional measurements, where tumor mass (in mg) = (a x b^2)/2, and a and b are the tumor length and width in mm, respectively. The tumor masses from both tumors on each mouse were added together, and the total mass per mouse was used for calculations of anti-tumor activity. Quantitative end-points include: (i) tumor growth delay [T-C, where T is the median time in days required for the treatment group tumors to reach a predetermined size (e.g., 1000 mg), and C is the median time in days for the control group tumors to reach the same size; tumor-free survivors are excluded from these calculations]; and (ii) T/C (in percent) when treatment (T) and control (C) groups for the control groups reached 700 mg in size (exponential growth phase). The median value of each group was determined (including zeros). Mouse weights were monitored as a gauge of drug toxicity.
Female ICR SCID mice (10 weeks old; 19 g average body weight) were implanted bilaterally with human MIA PaCa-2 PaC tumors.
In vivo efficacy trial with MIA PaCa-2 pancreatic cancer xenografts. Methods for in vivo maintenance of MIA PaCa-2 tumor xenografts and drug efficacy evaluations are analogous to those previously described (58, 62-67). MIA PaCa-2 human pancreatic cancer cells (5 × 10^6 cells/flank) were bilaterally implanted subcutaneously with tumor fragments (30-60 mg) with a 12-gauge trocar in female […] SCID mice (NCI Animal Production Program). The mice were 10 weeks old on day 0 (tumor implant) with an average body weight of 19 g. For the efficacy trial, the mice were maintained on either a folate-deficient diet from Harlan-Teklad (TD.00434) starting 14 days before subcutaneous tumor implant to ensure serum folate levels would approximate those of humans. A separate cohort of mice was fed a folate-replete control diet from Lab Diet (5021). Mice were supplied with food and water ad libitum. Serum folate concentrations were monitored prior to tumor implant and post study by Lactobacillus casei bioassay (68). The mice in each group (folate-deficient and standard diet) were pooled before unselective distribution to the treatment and control groups. […] The drugs were dissolved in 5% ethanol (v/v), 1% Tween-80 (v/v), and 0.5% NaHCO3 and were administered intravenously (0.2 ml/injection). The mice were weighed and tumors were measured with a caliper two-to-three times weekly; mice were sacrificed when the cumulative tumor burden reached 1500 mg. Tumor weights were estimated from two-dimensional measurements, where tumor mass (in mg) = (a × b^2)/2, and a and b are the tumor length and width in mm, respectively. The tumor masses from both tumors on each mouse were added together, and the total mass per mouse was used for calculations of anti-tumor activity. Quantitative end-points include: (i) tumor growth delay [T-C, where T is the median time in days required for the treatment group tumors to reach a predetermined size (e.g., 1000 mg), and C is the median time in days for the control group tumors to reach the same size; tumor-free survivors are excluded from these calculations]; and (ii) T/C (in percent) when treatment (T) and control (C) groups for the control groups reached 700 mg in size (exponential growth phase). The median value of each group was determined (including zeros). Mouse weights were monitored as a gauge of drug toxicity.

For series [3], the target named is AICARFTase (Homo sapiens, UniProt P31939). The series can be described thus: in vitro inhibition of purified AICARFTase (ATIC).
The mark [4] stands for this setting: IV, AGF291 Q6dx3 start d3, total 23.5 mg/kg, Gemcitabine Q4dx4 start d3, total 480 mg/kg.

The Ki is the dissociation constant of the complex between target and ligand, obtained from inhibition or displacement.

Chain of AICARFTase (P31939 whole entry): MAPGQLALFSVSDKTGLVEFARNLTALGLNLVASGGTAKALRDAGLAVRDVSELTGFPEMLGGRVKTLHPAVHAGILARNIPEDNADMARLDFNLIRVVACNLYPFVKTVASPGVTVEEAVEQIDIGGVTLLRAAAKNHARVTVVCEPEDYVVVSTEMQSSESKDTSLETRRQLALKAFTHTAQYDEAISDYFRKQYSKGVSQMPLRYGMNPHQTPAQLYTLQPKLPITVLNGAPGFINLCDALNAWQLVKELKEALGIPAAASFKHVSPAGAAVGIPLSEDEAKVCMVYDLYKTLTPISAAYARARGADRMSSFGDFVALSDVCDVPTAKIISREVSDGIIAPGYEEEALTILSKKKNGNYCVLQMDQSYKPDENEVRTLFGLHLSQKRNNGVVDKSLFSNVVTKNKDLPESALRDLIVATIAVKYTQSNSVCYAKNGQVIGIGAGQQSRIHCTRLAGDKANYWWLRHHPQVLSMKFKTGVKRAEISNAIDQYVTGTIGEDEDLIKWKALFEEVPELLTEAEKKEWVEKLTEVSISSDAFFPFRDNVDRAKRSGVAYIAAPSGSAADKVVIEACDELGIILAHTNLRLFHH

With `Nc1nc2ccn(CCCc3ccc(C(=O)N[C@@H](CCC(=O)O)C(=O)O)cc3)c2c(=O)[nH]1` [AGF291], the IC50 in series [1] is greater than 1 µM. For the same compound, in series [2] (setting [4]), the “Mean Body Weight Loss (g/mouse)” value is recorded as -1.8 g/mouse and the “Percent Body Weight Loss” value was -8.9%. Besides, in series [2] (day 14, control cohort 1321 mg), the “median tumor burden on day 14” value worked out at 256 mg. Besides, the “Median Tumor Burden in mg on d16 (range)” value in series [2] (day 16, IV, AGF291 total 23.5 mg/kg, Gemcitabine total 480 mg/kg) is 334 (0-1221) mg. The “Tumor Free on d52” value in series [2] (day 52, mice tumor free/total) was 0/5. Moreover, the “Tumor Growth Delay (T-C)” value in series [2] (median T-C to reach 1000 mg, AGF291 total 23.5 mg/kg, Gemcitabine total 480 mg/kg) was determined as 10.5 days. Besides, the “Time to 1000 mg in days (range)” value in series [2] (median, IV, AGF291 total 23.5 mg/kg, Gemcitabine total 480 mg/kg) is 23.0 (15.0-51) days. In addition, in series [2] (nadir on day 17 for AGF291, day 6 for GEM, completely reversible after cessation of therapy), the “weight loss (median nadir)” value was 9%. This compound also returned a T/C% in series [2] (treated/control median tumor burden, AGF291 7.75 mg/kg/inj Q6dx3, GEM 120 mg/kg/inj every 4 days, start day 3) of 19%. For the same compound, the Ki in series [3] is 10.9 ± 6.07 µM.

For the compound “(2-amino-4-oxo-3,4-dihydro-5H-pyrrolo[3,2-d]pyrimidin-5-yl)butyl)-2-fluorobenzoyl)-L-glutamic acid [AGF347]”, the “T-C (1000 mg)” value in series [2] (AGF347 Q2dx8 at 15 mg/kg/inj, total dose 120 mg/kg, start day 3) came to 54 days. The “mice disease-free at 122 days” value in series [2] (AGF347 Q2dx8 at 15 mg/kg/inj, total dose 120 mg/kg, 122 days) is 1/5.
